Where “and” joins values, the source holds several entries; their conditions need not be identical. Equal values may be shown once. Where a name gives a salt, the structure may show the parent alone.
Legend:
[1] = test system: Human umbilical vein endothelial cells (HUVEC); assay: Cytotoxicity, resazurin assay, HUVEC; type: cell-based; conditions: 48 h, DFO equivalents, read-out: Concentration to inhibit 50% cell growth
Experimental: Human umbilical vein endothelial cells (HUVEC) were obtained from Lonza, Inc., and cultured at 37° C./5% CO2 in EGM-2 complete medium. For the cytotoxicity assay, cells were seeded into 96-well plates at a density of 3,000 cell/well and allowed to equilibrate for 2 days before treatment. […] Readings from the wells without cells were used as blanks (Eblank), and the readings taken from control cells without treatment (Econtrol) 1 represented 100% cell viability. The viability of treated cells at each concentration can be calculated by the following equation: Cell Viability=100×(Esample˜Eblank)/(Econtrol˜Eblank)%

J774A.1 cells = assay: Cytotoxicity, resazurin assay, normal J774A.1 cells; type: cell-based; conditions: Mus musculus, J774.A1, 48 h, DFO equivalents, read-out: Concentration giving 50% cell viability
[2] = test system: iron-overloaded J774A.1 cells; assay: Ferritin reduction assay in iron overloaded J774A.1 cells; type: cell-based, mouse; conditions: for Ferritin decrease: 48 h
Experimental: J774A.1 cells were seeded in 6-well plates at a density of 30,000 cell/well and allowed to settle for 24 h at 37° C., 5% CO2 with DMEM complete medium before treatment. […] Subsequently, cells were washed with PBS and treated with DFO or oxNG-DFO at both 10 μM and 50 μM for 48 h. […] After 48 h incubation with DFO or oxNG-DFO, cells were lysed with cell lysis buffer (150 mM NaCl, 10 mM Tris, 1% Triton X-100 and protease inhibitor cocktail, pH 7.4) and total protein concentration was measured with the BCA protein assay kit. Cellular ferritin concentration was measured with a mouse ferritin ELISA kit. The results are plotted as the ratio of ng of ferritin per μg total protein concentration.
Subsequently, iron-loaded cells were treated for 48 h with 10 μM or 50 μM free DFO or equivalent oxNG2-DFO.

in vitro = conditions: mouse
Experimental: (§1) Mouse macrophage/monocyte cell line, J774A.1, was purchased from American Type Culture Collection (ATCC). Cells were seeded in 96-well plates at a density of 3,000 cells/well, cultured at 37° C., 5% CO2 with DMEM complete medium (supplemented with 10% (v/v) heat-inactivated FBS, 100 I.U./mL penicillin and 100 μg/mL streptomycin), and allowed to settle for 24 h. Cells were then treated with DFO or oxNG-DFO at equivalent DFO concentrations of 1 mM prepared by 1:3 serial dilutions.
(§2) Cell viability was measured with the metabolism-based resazurin assay. Briefly, the substrate resazurin was dissolved in cell culture medium at a concentration of 44 μM, added to each well (100 μl) and incubated at 37° C. for 4 h. The fluorescence was measured with excitation at 560 nm and emission at 590 nm, on a SpectraMax Gemini EM microplate reader. Readings from the wells without cells were used as Eblank, and the readings from control cells without treatment (Econtrol) represented 100% cell viability. The viability of treated cells at different concentrations can be calculated by the following equation: […]
(§3) Similarly, cytotoxicity was also evaluated in iron-overloaded J774A.1 cells as described above.
(§4) To evaluate the cytotoxicity of the nanogels, cells in complete DMEM medium were treated with equivalent amounts of free DFO or oxNG2-DFO ranging from 0.05-1000 μM and allowed to incubate for 48 h prior to evaluating cytotoxicity with a metabolism-based resazurin assay.

[3] = test system: iron-overloaded J774A.1 cells; assay: cells; conditions: Mus musculus, J774.A1, 48 h, read-out: Concentration giving 50% cell viability
Experimental: as §1, §2, §3, §4

Row | Molecule | IC50 [1] | IC50 (J774A.1 cells) | Cellular ferritin level [2] | Ferritin decrease ([2]; 10 μM DFO or equivalent) | Ferritin decrease ([2]; 50 μM DFO or equivalent) | viability at 48 h, 10 μM (in vitro) | viability at 48 h, 50 μM (in vitro) | IC50 [3] | Cellular ferritin expression after iron loading [2]
1 | CC(=O)N(O)CCCCCNC(=O)CCC(=O)N(O)CCCCCNC(=O)CCC(=O)N(O)CCCCCN [DFO, Deferoxamine mesylate] | ~2 µM | ~10 µM | 5.33 ng/μg total protein and 2.84 ng/μg total protein | 37.4% | 66.6% | ~50% | < 50% | ~15 µM | –
2 | Ferric ammonium citrate [FAC] | – | – | – | – | – | – | – | – | 8.51 ng/µg
